Experimental findings from patent US11111238B2, “Coumarin derivatives, processes for their preparation and uses thereof for the treatment of cancer” (Lead Discovery Center GmbH, priority 2017, dated 2021) are described below.

One may read the IC50 as the point on the concentration scale where inhibition reaches its midpoint.

In one assay the test system is NCI-H23 (lung). The assay is described as follows: CellTiter GLO viability assay, NCI-H23. The format is cell-based. On the procedure:
(§1) The CellTiter-Glo Luminescent Cell Viability Assay (Promega) is a homogeneous method of determining the number of viable cells in culture. It is based on quantification of ATP, indicating the presence of metabolically active cells.
(§2) Cells were seeded on day 1 at cell numbers that assure assay linearity and optimal signal intensity. After incubation for 3 h in humidified chambers at 37° C./5% CO2 compounds/DMSO were added at different concentrations. […] Cells treated with the compound vehicle DMSO were used as positive controls and cells treated with 10 μM Staurosporine served as negative controls. […] Thereon, mixture and assay plates were equilibrated at room temperature for 20 min. Equal volumes of the reagent-medium-mixture was added to the volume of culture medium present in each well.
(§3) The plates were mixed at ˜200 rpm for 2 minutes on an orbital shaker. The microplates were then incubated at room temperature for 10 minutes for stabilization of the luminescent signal. Following incubation the luminescence is recorded on a Victor microplate reader (Perkin Elmer) using 200 ms integration time. The data were then analyzed with Excel using the XLFIT Plugin (dose response Fit 205) for IC50-determination. As quality control the Z′-factor was calculated from 16 positive and negative control values. Only assay results showing a Z′-factor≥0.5 were used for further analysis.
In general terms: Cellular ATP, detected with luciferase, serves as a proxy for viable cell number.

In the next assay the test system is NCI-H596 (lung). The assay is described as follows: CellTiter GLO viability assay, NCI-H596. The format is cell-based. As to conditions: Homo sapiens, 144 h, read-out: IC50 (μM) incubation time 144 h. On the procedure:
as §1, §2, §3

Consider `C[C@@H](Oc1ccc2c(-c3ccc(F)cc3Cl)cc(=O)oc2c1)C(=O)N1CCC[C@H](C(=O)O)C1` [Compound 14, (3S)-1-[(2R)-2-[4-(2-chloro-4-fluoro-phenyl)-2-oxo-chromen-7-yl]oxypropanoyl]piperidine-3-carboxylic acid], for which the IC50 was in the range of 1 to 10 µM with NCI-H23 (lung) (Homo sapiens, NCI-H23 (lung), 144 h, read-out: IC50 (μM) incubation time 144 h) and 1 to 10 µM in the assay on NCI-H596 (lung). Moreover, the “sensitivity of the cell line (in words)” value in the assay on NCI-H23 (lung) (NCl-H23) is given as “moderate sensitivity”.
